Measurements reported in BigSolDB 2.1.

OCc1cn(Cc2ccccc2)nn1
solubility (mole fraction)
Conditions	292.15 K	295.15 K	298.15 K	301.15 K	304.15 K	307.15 K	310.15 K
in ethanol	0.0566	0.0681	0.0833	0.103	0.129	0.158	0.198
in isopropanol	0.0322	0.039	0.047	0.0576	0.0707	0.0889	0.112
in methanol	0.122	0.146	0.172	0.2	0.222	0.262	0.3
in n-butanol	0.0342	0.0408	0.0481	0.0579	0.0695	0.0832	0.1
in n-propanol	0.0422	0.0502	0.0607	0.0742	0.0909	0.113	0.141
in water	0.00147	0.0017	0.00197	0.00237	0.0029	0.00356	0.00433
